Source: publication PMC5535840 (International Journal of Molecular Sciences, 2017)
Where two headings read alike, the source gives them in different places.

Experiments:
[1] = biological target: T1, hMT1; MT1 melatonin receptor (Homo sapiens, UniProt P48039); assay: […]-GTPγS binding, CHO-K1 membranes; type: biochemical; conditions: read-out: MT1 / pEC50 (converted)
T1 construct: gene MTNR1A

[2] = biological target: T2, hMT2; MT2 melatonin receptor (Homo sapiens, UniProt P49286); assay: […]-[…]-iodomelatonin displacement, CHO-K1 membranes; type: binding
T2 construct: gene MTNR1B
T2 sequence (P49286 1-362): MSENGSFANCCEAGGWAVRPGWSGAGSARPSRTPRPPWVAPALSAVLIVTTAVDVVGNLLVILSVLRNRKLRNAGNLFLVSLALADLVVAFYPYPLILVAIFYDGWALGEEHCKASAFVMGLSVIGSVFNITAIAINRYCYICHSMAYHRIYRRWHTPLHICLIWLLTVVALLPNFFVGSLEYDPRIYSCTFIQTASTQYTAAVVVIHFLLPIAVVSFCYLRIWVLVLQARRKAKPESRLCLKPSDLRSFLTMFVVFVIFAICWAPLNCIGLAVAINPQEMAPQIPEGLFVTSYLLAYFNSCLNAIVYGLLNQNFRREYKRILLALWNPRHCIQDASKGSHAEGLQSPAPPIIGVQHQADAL

[3] = biological target: T2, hMT2; MT2 melatonin receptor; assay: […]-GTPγS binding, CHO-K1 membranes; type: biochemical
[4] = biological target: T1, hMT1; MT1 melatonin receptor; assay: […]-[…]-iodomelatonin displacement, CHO-K1 membranes; type: binding
[5] = radioligand […]-[…]-iodomelatonin
[6] = read-out: MT2 / pEC50 (converted)

T1 sequence (P48039 whole entry): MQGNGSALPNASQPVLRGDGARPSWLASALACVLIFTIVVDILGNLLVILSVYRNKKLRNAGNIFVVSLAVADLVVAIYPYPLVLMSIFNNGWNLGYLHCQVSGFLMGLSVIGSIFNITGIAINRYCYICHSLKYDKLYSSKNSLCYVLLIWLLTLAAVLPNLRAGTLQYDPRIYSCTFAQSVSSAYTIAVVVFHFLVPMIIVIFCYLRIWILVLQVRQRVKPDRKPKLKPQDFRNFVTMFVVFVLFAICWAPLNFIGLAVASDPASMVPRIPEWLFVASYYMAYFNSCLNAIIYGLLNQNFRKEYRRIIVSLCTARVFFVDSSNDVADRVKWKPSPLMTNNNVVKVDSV

| EC50 [1] [nM] | Ki [2, 5] [nM] | EC50 [3, 6] [nM] | Ki [4] [nM] | Ki [2] [nM] | Ki [4, 5] [nM] | EC50 ([3]; read-out: MT1 / pEC50 (converted)) [nM] | SMILES |
| --- | --- | --- | --- | --- | --- | --- | --- |
| > 10000 | 1.4 ± 0.1 | 1.38 | 1780 ± 118 |  |  |  | COc1cc(Br)c(Cc2cc(OC)c(OC)cc2CC(=O)OC(C)(C)C)cc1OC [DIV0879] |
| > 10000 |  | 0.331 | 1200 ± 143 | 1 ± 0.1 |  |  | COc1cc(I)c(Cc2cc(OC)c(OC)cc2CC(=O)OC(C)(C)C)cc1OC [DIV0880] |
| > 10000 | 1.4 ± 0.1 | 2.04 |  |  | 1300 ± 97 |  | COc1ccc(Cc2cc(OC)c(OC)cc2CC(=O)OC(C)(C)C)cc1OC [DIV4288] |
| > 10000 | 0.49 ± 0.01 |  |  |  | 44 ± 7 | > 10000 | COc1cc(CC(=O)OC(C)(C)C)c(Cc2cc(OC)c(OC)cc2-c2ccccc2)cc1OC [DIV6519] |

| SMILES | EC50 [1] [nM] | Ki [2, 5] [nM] | EC50 [3, 6] [nM] | Ki [4] [nM] | Ki [2] [nM] | Ki [4, 5] [nM] | EC50 ([3]; read-out: MT1 / pEC50 (converted)) [nM] |
| --- | --- | --- | --- | --- | --- | --- | --- |
| COc1cc(F)c(Cc2cc(OC)c(OC)cc2CC(=O)OC(C)(C)C)cc1OC [DIV6518] | > 10000 | 1.4 ± 0.3 | 1.17 |  |  | 630 ± 55 |  |
